According to US7635696B2, “Isoxazoline-indole derivatives with an improved antipsychotic and anxiolytic activity” (Janssen Pharmaceutica N.V., priority 2004, dated 2009):

What was measured:
human 5HT transporter = target: T1, human 5HT transporter (Homo sapiens, UniProt P31645); assay: Binding experiment for 5-HT transporter ([3H]Paroxetine); details: transfected HEK cell membranes, [3H]Paroxetine
T1 construct: host or cells: HEK cells
Protocol: (§1) The interaction of the compounds of Formula (I) with dopamine-receptors, h5HT-transporter and h5HT1A receptor was assessed in in vitro radioligand binding experiments. In general, a low concentration of a radioligand with a high binding affinity for a particular receptor or transporter is incubated with a sample of a tissue preparation enriched in a particular receptor or transporter or with a preparation of cells expressing cloned human receptors in a buffered medium. During the incubation, the radioligand binds to the receptor or transporter. When equilibrium of binding is reached, the receptor bound radioactivity is separated from the non-bound radioactivity, and the receptor- or transporter-bound activity is counted. The interaction of the test compounds with the receptor is assessed in competition binding experiments. Various concentrations of the test compound are added to the incubation mixture containing the receptor- or transporter preparation and the radioligand. The test compound in proportion to its binding affinity and its concentration inhibits binding of the radioligand.
Frozen human 5HT transporter-transfected HEK cells (Perkin Elmer, Brussels) were thawed and briefly homogenised using an Ultra-Turrax T25 homogeniser prior to dilution to an appropriate protein concentration optimised for specific and non-specific binding. [^3H]Paroxetine (NEN, specific activity 20 Ci/mmol) was diluted in Tris-HCl assay buffer containing NaCl and KCl (50 mM, 120 mM and 5 mM, respectively; pH 7.4) at a concentration of 5 nmol/L. Prepared radioligand (25 μl) was then incubated (60 min, 25° C.) with membrane preparations (200 μl) and with 25 μl of either 10% DMSO control, Inipramine (10^−6 mol/L final concentration), or compound of interest. Membrane-bound activity was detected by filtration through a Packard Filtermate harvester onto Unifilterplates pre-soaked in 0.1% PEI, washing with ice-cold assay buffer (3×4 ml). Filters were dried prior to addition of scintillation fluid and then counting in a Topcount scintillation counter. % Specific bound and competition binding curves were calculated using S-Plus software (Insightful).

Human 5HT1A receptor = target: T2, Human 5HT1A receptor (Homo sapiens, UniProt P08908); assay: Binding experiment for 5-HT1A receptor ([3H]8OHDPAT); details: transfected L929 cell membranes, [3H]8OHDPAT
T2 construct: expressed in transfected cells; host or cells: L929 cells (stably transfected)
T2 sequence (P08908 1-422): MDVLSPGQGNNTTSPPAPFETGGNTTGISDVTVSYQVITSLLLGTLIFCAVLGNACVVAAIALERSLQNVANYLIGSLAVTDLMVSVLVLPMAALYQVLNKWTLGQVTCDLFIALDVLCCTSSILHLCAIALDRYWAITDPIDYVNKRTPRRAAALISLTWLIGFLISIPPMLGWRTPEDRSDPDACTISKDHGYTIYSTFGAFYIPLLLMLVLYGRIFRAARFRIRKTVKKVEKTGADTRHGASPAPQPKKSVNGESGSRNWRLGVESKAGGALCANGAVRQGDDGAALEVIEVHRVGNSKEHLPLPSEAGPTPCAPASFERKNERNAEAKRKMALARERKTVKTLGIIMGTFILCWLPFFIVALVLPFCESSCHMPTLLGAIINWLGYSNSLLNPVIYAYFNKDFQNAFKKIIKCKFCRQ
Protocol: as §1
Human 5HT1A receptor-transfected L929 cells were collected by scraping into ice-cold Tris-HCl buffer (50 mM, pH 7.4). The suspension was centrifuged (23 500×g, 10 min, 4° C.) and pellets stored at −70° C. until required. They were then thawed and briefly homogenised using an Ultra-Turrax T25 homogeniser prior to dilution to an appropriate protein concentration optimised for specific and non-specific binding. [^3H]80HDPAT (NEN, specific activity 127 Ci/mmol) was diluted in Tris-HCl assay buffer containing CaCl2 (50 mM and 4 mM, respectively; pH 7.7) at a concentration of 5 nmol/L. Prepared radioligand (50 μl) was then incubated (30 min, 37° C.) with membrane preparations from L929 cells stably-transfected with the h5HT1A gene construct (400 μl) and with 50 μl of either the 10% DMSO control, spiroxatrine (10^−6 mol/L final concentration), or compound of interest. Membrane-bound activity was detected by filtration through a Packard Filtermate harvester onto Unifilterplates, washing with ice-cold Tris-HCl buffer (3×4 ml), followed by drying. Scintillation fluid was added and membranes were counted in a Topcount scintillation counter. % Specific bound and competition binding curves were calculated using S-Plus software (Insightful).

[1] = target: T3, Human Dopamine D2L receptor (Homo sapiens, UniProt P14416); assay: Binding experiment for dopamine D2 receptor ([3H]Spiperone); details: D2L-transfected CHO cell membranes
T3 construct: expressed in transfected cells; host or cells: CHO cells
T3 sequence (P14416 whole entry): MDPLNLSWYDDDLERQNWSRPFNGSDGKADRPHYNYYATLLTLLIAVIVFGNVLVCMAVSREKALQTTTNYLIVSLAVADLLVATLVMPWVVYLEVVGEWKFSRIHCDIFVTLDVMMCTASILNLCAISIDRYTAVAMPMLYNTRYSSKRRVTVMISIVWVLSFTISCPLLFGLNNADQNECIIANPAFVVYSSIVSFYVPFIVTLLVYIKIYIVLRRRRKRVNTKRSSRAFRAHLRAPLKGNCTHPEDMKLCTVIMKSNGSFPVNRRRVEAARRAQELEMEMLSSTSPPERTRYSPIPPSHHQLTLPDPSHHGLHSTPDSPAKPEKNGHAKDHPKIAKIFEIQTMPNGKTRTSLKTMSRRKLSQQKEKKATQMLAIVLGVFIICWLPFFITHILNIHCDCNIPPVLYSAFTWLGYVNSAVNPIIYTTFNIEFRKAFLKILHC
Protocol: as §1
Human Dopamine D2L receptor-transfected CHO cells were collected by scraping into ice-cold Tris-HCl buffer (50 mM, pH 7.4). The suspension was centrifuged (23 500×g, 10 min, 4° C.) and pellets stored at −70° C. until required. They were then thawed and briefly homogenised using an Ultra-Turrax T25 homogeniser prior to dilution to an appropriate protein concentration optimised for specific and non-specific binding. [^3H]Spiperone (NEN, specific activity ˜70 Ci/mmol) was diluted in Tris-HCl assay buffer containing NaCl, CaCl2, MgCl2, KCl (50, 120, 2, 1, and 5 mM respectively, adjusted to pH 7.7 with HCl) at a concentration of 2 nmol/L. Prepared radioligand (50 μl) was then incubated (30 min, 37° C.) with membrane preparations pre-diluted to an appropriate protein concentration (400 μl), and with 50 μl of either the 10% DMSO control, Butaclamol (10^−6 mol/L final concentration), or compound of interest. Membrane-bound activity was detected by filtration through a Packard Filtermate harvester onto Unifilterplates, washing with ice-cold Tris-HCl buffer (50 mM; pH8.0; 3×4 ml). Filters were allowed to dry before adding scintillation fluid and counting in a Topcount scintillation counter. % Specific bound and competition binding curves were calculated using S-Plus software (Insightful).

[2] = target: T4, Human Dopamine D3 receptor (Homo sapiens, UniProt P35462); assay: Binding experiment for dopamine D3 receptor ([125I]Iodosulpride); details: transfected CHO cell membranes
T4 construct: expressed in transfected cells; host or cells: CHO cells
T4 sequence (P35462 whole entry): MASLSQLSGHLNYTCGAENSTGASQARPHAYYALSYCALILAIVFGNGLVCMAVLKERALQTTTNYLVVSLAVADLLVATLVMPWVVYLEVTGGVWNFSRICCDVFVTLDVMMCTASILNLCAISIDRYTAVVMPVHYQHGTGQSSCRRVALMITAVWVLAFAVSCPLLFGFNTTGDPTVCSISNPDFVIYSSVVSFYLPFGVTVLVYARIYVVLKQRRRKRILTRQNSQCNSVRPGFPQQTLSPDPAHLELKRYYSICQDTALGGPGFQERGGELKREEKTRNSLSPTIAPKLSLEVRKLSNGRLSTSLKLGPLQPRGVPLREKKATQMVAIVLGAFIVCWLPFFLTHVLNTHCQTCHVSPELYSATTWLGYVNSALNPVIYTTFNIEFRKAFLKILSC
Protocol: as §1
Human Dopamine D3 receptor-transfected CHO cells were collected by scraping into ice-cold Tris-HCl buffer (50 mM, pH 7.4). The suspension was centrifuged (23 500×g, 10 min, 4° C.) and pellets stored at −70° C. until required. They were then thawed and briefly homogenised using an Ultra-Turrax T25 homogeniser prior to dilution to an appropriate protein concentration optimised for specific and non-specific binding. [^125I]Iodosulpride (Amersham, specific activity 2000 Ci/mmol) was diluted in Tris-HCl assay buffer containing NaCl, CaCl2, MgCl2, KCl and BSA (50, 120, 2, 1, 5 mM, 0.1% respectively, adjusted to pH 7.7 with HCl) at a concentration of 2 nmol/L. Prepared radioligand (20 μl) was incubated (60 min, RT) and with 20 μl of either the 10% DMSO control, Risperidone (10^−6 mol/L final concentration), or compound of interest, then with membrane preparations (80 μl). Overnight incubation followed after addition of WGA-coated PVT SPA beads (250 μl; Amersham) and membrane-bound counts measured in a Wallac Microbeta. % Specific bound and competition binding curves were calculated using S-Plus software (Insightful).

T1 sequence (P31645 whole entry): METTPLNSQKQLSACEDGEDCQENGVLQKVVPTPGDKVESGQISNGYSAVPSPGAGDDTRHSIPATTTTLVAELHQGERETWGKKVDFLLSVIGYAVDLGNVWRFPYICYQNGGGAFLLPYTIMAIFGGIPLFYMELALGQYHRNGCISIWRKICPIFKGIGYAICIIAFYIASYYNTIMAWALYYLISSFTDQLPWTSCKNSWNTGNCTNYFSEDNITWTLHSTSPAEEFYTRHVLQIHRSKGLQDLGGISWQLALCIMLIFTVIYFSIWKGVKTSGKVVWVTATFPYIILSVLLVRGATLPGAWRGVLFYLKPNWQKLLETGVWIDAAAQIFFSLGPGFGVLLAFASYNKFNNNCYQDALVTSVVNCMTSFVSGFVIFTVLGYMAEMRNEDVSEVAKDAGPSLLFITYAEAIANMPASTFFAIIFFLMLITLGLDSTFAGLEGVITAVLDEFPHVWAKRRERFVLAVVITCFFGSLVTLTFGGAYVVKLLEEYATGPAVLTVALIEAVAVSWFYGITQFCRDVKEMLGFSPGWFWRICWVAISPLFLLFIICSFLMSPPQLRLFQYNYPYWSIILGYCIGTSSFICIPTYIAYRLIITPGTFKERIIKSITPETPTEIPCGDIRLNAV

Compound | pIC50 5HTT (human 5HT transporter) | pIC50 5-HT1A (Human 5HT1A receptor) | pIC50 D2 [1] | pIC50 D3 [2]
COc1cc2c(cc1OC)C1=NOC(CNCCCc3c[nH]c4ccc(F)cc34)C1CO2 (single isomer, unassigned) [Compound 4] | 7.8 | 8.6 | 6.1 | 6.7
COc1cc2c(cc1OC)C1=NOC(CNCCCc3c[nH]c4ccc(F)cc34)C1CO2 (single isomer, unassigned) [Compound 5] | 7.2 | >9 | 6.6 | 7.0
COc1cc2c(cc1OC)C1=NOC(CN3CC=C(c4c[nH]c5ccccc45)CC3)C1CO2 (single isomer, unassigned) [Compound 6] | 7.1 | 6.6 | <6 | 6.2
COc1cc2c(cc1OC)C1=NOC(CN3CCC(c4c[nH]c5ccc(F)cc45)CC3)C1CO2 (single isomer, unassigned) [Compound 11] | 6.9 | 8.9 | 7.2 | 7.2
COc1cc2c(cc1OC)C1=NOC(CN3CC=C(c4c[nH]c5ccc(F)cc45)CC3)C1CO2 (single isomer, unassigned) [Compound 12] | 8.0 | 7.6 | 6.5 | 7.3
COc1cc2c(cc1OC)C1=NOC(CN3CC=C(c4c[nH]c5cccc(F)c45)CC3)C1CO2 (single isomer, unassigned) [Compound 13] | 7.7 | 8.7 | 6.2 | 6.8
COc1cc2c(cc1OC)C1=NOC(CN3CC=C(c4c[nH]c5ccccc45)CC3)C1CO2 (single isomer, unassigned) [Compound 14] | 7.5 | 8.3 | 6.8 | 6.5
COc1cc2c(cc1OC)C1=NOC(CN3CCC(c4c[nH]c5ccc(F)cc45)CC3)C1CO2 (single isomer, unassigned) [Compound 15] | 7.1 | 7.2 | 6.1 | 6.4
COc1cc2c(cc1OC)C1=NOC(CN3CC=C(c4c[nH]c5cccc(F)c45)CC3)C1CO2 (single isomer, unassigned) [Compound 16] | 6.9 | 7.1 | 6.0 | 6.5
Fc1ccc2[nH]cc(C3=CCN(CC4ON=C5c6cc7c(cc6OCC54)OCCO7)CC3)c2c1 (single isomer, unassigned) [Compound 28] | 7.8 | 8.6 | 6.3 | 6.2
Fc1ccc2[nH]cc(C3CCN(CC4ON=C5c6cc7c(cc6OCC54)OCCO7)CC3)c2c1 (single isomer, unassigned) [Compound 29] | 6.9 | 8.8 | 6.6 | 6.5
